Read-outs that look alike come from different tables or passages of the source.
System: Myc
Assay: Myc inhibition assay: Myc expression per cell by anti-Myc immunofluorescence, high-content imaging
Format: cell-based, human (patient-derived medulloblastoma xenograft cells)
Conditions: medulloblastoma PDX cells, 4 h
Text: To identify Myc inhibitors, cells isolated from patient-derived orthotopic xenografts (PDXs) from patients with Myc-driven medulloblastoma were used. Specifically, PDX cells were propagated by transplantation directly into the cerebellum of immunodeficient (NSG) mice and were never passaged in vitro in order to maintain properties of the tumor from which they were derived. Tumor tissues were isolated from tumor-bearing animals, dissociated into a single-cell suspension, resuspended in serum-free media, and immediately plated in 384 well plates. After overnight recovery, compounds were added to each well, and cells were incubated for 4 hours before being fixed and stained with anti-Myc antibodies and with DAPI to label nuclei. Cells were then analyzed using high-content imaging to determine the levels of Myc expression per cell and IC50 values of the compounds.

[1] = Table 1, read-out: IC50 (Myc inhibition)
[2] = Table 2, read-out: MYC Inhibition IC50

IC50 [1] [nM]	IC50 [2] [nM]	Compound
< 200	< 200	O=C(Nc1cccc(Nc2nccc(-c3ccc4[nH]cnc4c3)n2)c1)c1ccccc1 [Compound 1, N-(3-((4-(1H-benzo[d]imidazol-5-yl)pyrimidin-2-yl)amino)phenyl)benzamide]
200 to 1000	200 to 1000	CC(=O)Nc1cccc(Nc2nccc(-c3ccc4[nH]cnc4c3)n2)c1 [Compound 2, N-(3-((4-(1H-benzo[d]imidazol-5-yl)pyrimidin-2-yl)amino)phenyl)acetamide]
1000 to 10000	1000 to 10000	Cc1cccc(C)c1-c1cccc(Nc2nccc(-c3ccc4[nH]cnc4c3)n2)c1 [Compound 3, 4-(1H-benzo[d]imidazol-5-yl)-N-(2′,6′-dimethyl-[1,1′-biphenyl]-3-yl)pyrimidin-2-amine]
1000 to 10000	1000 to 10000	Cc1ccc(C)n1-c1cccc(Nc2nccc(-c3ccc4[nH]cnc4c3)n2)c1 [Compound 4, 4-(1H-benzo[d]imidazol-5-yl)-N-(3-(2,5-dimethyl-1H-pyrrol-1-yl)phenyl)pyrimidin-2-amine]
< 200	< 200	CCS(=O)(=O)c1cccc(Nc2nccc(-c3ccc4[nH]cnc4c3)n2)c1 [Compound 5, 4-(1H-benzo[d]imidazol-5-yl)-N-(3-(ethylsulfonyl)phenyl)pyrimidin-2-amine]
1000 to 10000	1000 to 10000	c1cc(-c2ccc3[nH]cnc3c2)nc(Nc2cnn(C3CCOCC3)c2)n1 [Compound 6, 4-(1H-benzo[d]imidazol-5-yl)-N-(1-(tetrahydro-2H-pyran-4-yl)-1H-pyrazol-4-yl)pyrimidin-2-amine]
< 200	< 200	CN(C)S(=O)(=O)c1cccc(Nc2nccc(-c3ccc4[nH]cnc4c3)n2)c1 [Compound 7, 3-((4-(1H-benzo[d]imidazol-5-yl)pyrimidin-2-yl)amino)-N,N-dimethylbenzenesulfonamide]
< 200	< 200	c1cc(Nc2nccc(-c3ccc4[nH]cnc4c3)n2)cc(-n2cccn2)c1 [Compound 8, N-(3-(1H-pyrazol-1-yl)phenyl)-4-(1H-benzo[d]imidazol-5-yl)pyrimidin-2-amine]
200 to 1000	200 to 1000	O=C(NC1CC1)c1cccc(Nc2nccc(-c3ccc4[nH]cnc4c3)n2)c1 [Compound 9, 3-((4-(1H-benzo[d]imidazol-5-yl)pyrimidin-2-yl)amino)-N-cyclopropylbenzamide]
200 to 1000	200 to 1000	O=C(c1cccc(Nc2nccc(-c3ccc4[nH]cnc4c3)n2)c1)N1CCOCC1 [Compound 11, (3-((4-(1H-benzo[d]imidazol-5-yl)pyrimidin-2-yl)amino)phenyl)(morpholino)methanone]
200 to 1000	200 to 1000	O=S(=O)(Nc1ccccc1F)c1cccc(Nc2nccc(-c3ccc4[nH]cnc4c3)n2)c1 [Compound 12, 3-((4-(1H-benzo[d]imidazol-5-yl)pyrimidin-2-yl)amino)-N-(2-fluorophenyl)benzenesulfonamide]
< 200	< 200	Cc1cc(F)cc(Nc2nccc(-c3ccc4[nH]cnc4c3)n2)c1 [Compound 13, 4-(1H-benzo[d]imidazol-5-yl)-N-(3-fluoro-5-methylphenyl)pyrimidin-2-amine]
10000 to 100000	10000 to 100000	FC(F)(F)c1cncc(Nc2nccc(-c3ccc4[nH]cnc4c3)n2)c1 [Compound 14, 4-(1H-benzo[d]imidazol-5-yl)-N-(5-(trifluoromethyl)pyridin-3-yl)pyrimidin-2-amine]
200 to 1000	200 to 1000	CCC(=O)Nc1cccc(Nc2nccc(-c3ccc4[nH]cnc4c3)n2)c1 [Compound 15, N-(3-((4-(1H-benzo[d]imidazol-5-yl)pyrimidin-2-yl)amino)phenyl)propionamide]
< 200	< 200	Cc1cc(C)cc(Nc2nccc(-c3ccc4[nH]cnc4c3)n2)c1 [Compound 16, 4-(1H-benzo[d]imidazol-5-yl)-N-(3,5-dimethylphenyl)pyrimidin-2-amine]
10000 to 100000	10000 to 100000	O=C(c1cccc(Nc2nccc(-c3ccc4[nH]cnc4c3)n2)c1)N1CCCC1 [Compound 17, (3-((4-(1H-benzo[d]imidazol-5-yl)pyrimidin-2-yl)amino)phenyl)(pyrrolidin-1-yl)methanone]
1000 to 10000	1000 to 10000	CN(C)C(=O)c1cccc(Nc2nccc(-c3ccc4[nH]cnc4c3)n2)c1 [Compound 18, 3-((4-(1H-benzo[d]imidazol-5-yl)pyrimidin-2-yl)amino)-N,N-dimethylbenzamide]
200 to 1000	200 to 1000	CCN(CC)C(=O)c1cccc(Nc2nccc(-c3ccc4[nH]cnc4c3)n2)c1 [Compound 19, 3-((4-(1H-benzo[d]imidazol-5-yl)pyrimidin-2-yl)amino)-N,N-diethylbenzamide]

IC50 [1] [nM]	IC50 [2] [nM]	Compound
200 to 1000	200 to 1000	c1cnc(-n2cc(Nc3nccc(-c4ccc5[nH]cnc5c4)n3)cn2)nc1 [Compound 20, 4-(1H-benzo[d]imidazol-5-yl)-N-(1-(pyrimidin-2-yl)-1H-pyrazol-4-yl)pyrimidin-2-amine]
200 to 1000	200 to 1000	CC(C)n1cc(Nc2nccc(-c3ccc4[nH]cnc4c3)n2)cn1 [Compound 21, 4-(1H-benzo[d]imidazol-5-yl)-N-(1-isopropyl-1H-pyrazol-4-yl)pyrimidin-2-amine]
10000 to 100000	10000 to 100000	Oc1cccc(Nc2nccc(-c3ccc4[nH]cnc4c3)n2)n1 [Compound 22, 6-((4-(1H-benzo[d]imidazol-5-yl)pyrimidin-2-yl)amino)pyridin-2-ol]
1000 to 10000	1000 to 10000	O=S(=O)(Nc1ccccc1)c1cccc(Nc2nccc(-c3ccc4[nH]cnc4c3)n2)c1 [Compound 23, 3-((4-(1H-benzo[d]imidazol-5-yl)pyrimidin-2-yl)amino)-N-phenylbenzenesulfonamide]
200 to 1000	200 to 1000	O=S(=O)(NC1CC1)c1cccc(Nc2nccc(-c3ccc4[nH]cnc4c3)n2)c1 [Compound 24, 3-((4-(1H-benzo[d]imidazol-5-yl)pyrimidin-2-yl)amino)-N-cyclopropylbenzenesulfonamide]
< 200	< 200	CNS(=O)(=O)c1cccc(Nc2nccc(-c3ccc4[nH]cnc4c3)n2)c1 [Compound 25, 3-((4-(1H-benzo[d]imidazol-5-yl)pyrimidin-2-yl)amino)-N-methylbenzenesulfonamide]
< 200	< 200	CC(C)S(=O)(=O)c1cccc(Nc2nccc(-c3ccc4[nH]cnc4c3)n2)c1 [Compound 26, 4-(1H-benzo[d]imidazol-5-yl)-N-(3-(isopropylsulfonyl)phenyl)pyrimidin-2-amine]
< 200	< 200	CS(=O)(=O)c1cccc(Nc2nccc(-c3ccc4[nH]cnc4c3)n2)c1 [Compound 27, 4-(1H-benzo[d]imidazol-5-yl)-N-(3-(methylsulfonyl)phenyl)pyrimidin-2-amine]
1000 to 10000	1000 to 10000	O=C(O)c1cccc(Nc2nccc(-c3ccc4[nH]cnc4c3)n2)c1 [Compound 28, 3-((4-(1H-benzo[d]imidazol-5-yl)pyrimidin-2-yl)amino)benzoic acid]
1000 to 10000	1000 to 10000	Oc1ccc(Nc2nccc(-c3ccc4[nH]cnc4c3)n2)cn1 [Compound 29, 5-((4-(1H-benzo[d]imidazol-5-yl)pyrimidin-2-yl)amino)pyridin-2-ol]
1000 to 10000	1000 to 10000	FC(F)(F)c1cccc(Nc2nccc(-c3c[nH]c4cnccc34)n2)c1 [Compound 30, 4-(1H-pyrrolo[2,3-c]pyridin-3-yl)-N-(3-(trifluoromethyl)phenyl)pyrimidin-2-amine]
< 200	< 200	Brc1cccc(Nc2nccc(-c3ccc4[nH]cnc4c3)n2)c1 [Compound 31, 4-(1H-benzo[d]imidazol-5-yl)-N-(3-bromophenyl)pyrimidin-2-amine]
200 to 1000	200 to 1000	CC(C)(C)NS(=O)(=O)c1cccc(Nc2nccc(-c3ccc4[nH]cnc4c3)n2)c1 [Compound 32, 3-((4-(1H-benzo[d]imidazol-5-yl)pyrimidin-2-yl)amino)-N-(tert-butyl)benzenesulfonamide]
200 to 1000	200 to 1000	Cc1ccccc1-c1cccc(Nc2nccc(-c3ccc4[nH]cnc4c3)n2)c1 [Compound 33, 4-(1H-benzo[d]imidazol-5-yl)-N-(2′-methyl-[1,1′-biphenyl]-3-yl)pyrimidin-2-amine]
1000 to 10000	1000 to 10000	Cn1cnc2cc(-c3ccnc(Nc4cccc(C(F)(F)F)c4)n3)ccc21 [Compound 34, 4-(1-methyl-1H-benzo[d]imidazol-5-yl)-N-(3-(trifluoromethyl)phenyl)pyrimidin-2-amine]
< 200	< 200	c1ccc(-n2cc(Nc3nccc(-c4ccc5[nH]cnc5c4)n3)cn2)nc1 [Compound 35, 4-(1H-benzo[d]imidazol-5-yl)-N-(1-(pyridin-2-yl)-1H-pyrazol-4-yl)pyrimidin-2-amine]
200 to 1000	200 to 1000	O=S(=O)(Nc1ccc(F)cc1)c1cccc(Nc2nccc(-c3ccc4[nH]cnc4c3)n2)c1 [Compound 36, 3-((4-(1H-benzo[d]imidazol-5-yl)pyrimidin-2-yl)amino)-N-(4-fluorophenyl)benzenesulfonamide]
200 to 1000	200 to 1000	c1ccc(Cn2cc(Nc3nccc(-c4ccc5[nH]cnc5c4)n3)cn2)cc1 [Compound 37, 4-(1H-benzo[d]imidazol-5-yl)-N-(1-benzyl-1H-pyrazol-4-yl)pyrimidin-2-amine]

Reference: patent US20260356817A1, “AMINOPYRIMIDINE AND AMINOTRIAZINE DERIVATIVES AS MYC PROTEIN MODULATORS” (Sanford Burnham Prebys Medical Discovery Institute, priority 2022, published 2026)
